Test results reported in paper PMC9867837 (Cancer letters, 2022).

Key:
[1] = target: Stat3 (Homo sapiens, UniProt P40763); assay: Immunofluorescence confocal microscopy of Stat3 localization; assay type: cell-based; parameters: endogenous in cells; conditions: MDA-MB-231 and MDA-MB-468, 1 or 2 μM H182, 12 h
Description: These studies were performed as previously reported. Details are presented in Supplementary Information, “Methods”.
During confluence of cultured cells, the cell-to-cell adhesion and cadherin engagement trigger increased Tyr705Stat3 phosphorylation in a variety of cell lines. To investigate the impact of cell-to-cell adhesion and cadherin engagement, parallel studies were conducted in which cells in culture were untreated or treated with 1 or 2 μM H182 for 0.5–48 h, and whole-cell lysates prepared and immunoprobed for pTyr705Stat3. […] After 48-h incubation, the cell confluency of the DMSO-treated samples reached to around 60% for MDA-MB-468 cells and 80% for MDA-MB-231 cells. […] In the untreated cells, Stat3 (red punctate) staining was predominantly localized in the nucleus of the tumor cells, with weak presence in the cytoplasm (Fig. 4F, 0, Stat3, red merged with blue DAPI nuclear staining). […] Total Stat3 protein levels in all of these studies were unchanged, and GAPDH, tubulin or β-actin levels show equal protein loading. The percent changes induced by H182 treatment on Stat3 DNA-binding activity and phosphorylation in the treated cells are shown.
These studies were performed as previously reported . […]

[2] = system: Stat3-independent pLucSRE luciferase reporter; assay: Stat3-independent luciferase reporter pLucSRE in NIH3T3/v-Src; assay type: cell-based, mouse; conditions: 1–3 μM H182 for 1 h

Chain of Stat3 (P40763 whole entry): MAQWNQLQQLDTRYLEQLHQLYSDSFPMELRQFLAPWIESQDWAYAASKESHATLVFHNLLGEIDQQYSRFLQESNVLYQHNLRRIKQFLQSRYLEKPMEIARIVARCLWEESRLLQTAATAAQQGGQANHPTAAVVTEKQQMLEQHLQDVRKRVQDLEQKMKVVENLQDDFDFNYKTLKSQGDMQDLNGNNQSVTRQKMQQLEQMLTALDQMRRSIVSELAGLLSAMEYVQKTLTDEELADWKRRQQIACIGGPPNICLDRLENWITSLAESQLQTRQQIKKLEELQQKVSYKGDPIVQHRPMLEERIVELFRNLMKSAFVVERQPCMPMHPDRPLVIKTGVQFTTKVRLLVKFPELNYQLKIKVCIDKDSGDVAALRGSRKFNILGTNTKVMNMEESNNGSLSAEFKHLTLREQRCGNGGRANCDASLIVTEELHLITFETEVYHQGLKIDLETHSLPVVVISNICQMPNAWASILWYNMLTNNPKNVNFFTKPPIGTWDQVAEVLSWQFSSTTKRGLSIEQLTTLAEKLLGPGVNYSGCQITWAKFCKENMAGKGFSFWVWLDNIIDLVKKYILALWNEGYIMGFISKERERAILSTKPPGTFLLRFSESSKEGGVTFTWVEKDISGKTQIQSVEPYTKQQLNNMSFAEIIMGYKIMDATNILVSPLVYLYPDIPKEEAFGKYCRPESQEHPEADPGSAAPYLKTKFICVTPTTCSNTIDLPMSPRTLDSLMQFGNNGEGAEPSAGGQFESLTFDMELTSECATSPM

O=C([C@H]1CCN1S(=O)(=O)c1c(F)c(F)c(F)c(F)c1F)N(Cc1ccc(C2CCCCC2)cn1)c1ccc2c(=O)[nH]ncc2c1 [Compound H182]
Effect on intracellular localization of Stat3 [1]: decreased nuclear Stat3 staining and Stat3 aggregation at the perinuclear region
Effect on pLucSRE luciferase reporter expression [2]: no changes
